Columns and labels:
SlPOR3 = target: T1, SlPOR3 (Solanum lycopersicum, UniProt A0A3Q7J565); assay: […] K Pchlide fluorescence in darkness, F648/F635 ratio vs NADPH, hyperbolic fit; format: binding; conditions: lipid-free; 5 μM Pchlide, 15 μM LPOR, pH 7.1, room-temperature dark incubation; apparent parameter, exact value in supplement; read-out: KM^D
T1 construct: gene LOC101248079; transit peptide removed; pET15b
T1 sequence (A0A3Q7J565 63-397): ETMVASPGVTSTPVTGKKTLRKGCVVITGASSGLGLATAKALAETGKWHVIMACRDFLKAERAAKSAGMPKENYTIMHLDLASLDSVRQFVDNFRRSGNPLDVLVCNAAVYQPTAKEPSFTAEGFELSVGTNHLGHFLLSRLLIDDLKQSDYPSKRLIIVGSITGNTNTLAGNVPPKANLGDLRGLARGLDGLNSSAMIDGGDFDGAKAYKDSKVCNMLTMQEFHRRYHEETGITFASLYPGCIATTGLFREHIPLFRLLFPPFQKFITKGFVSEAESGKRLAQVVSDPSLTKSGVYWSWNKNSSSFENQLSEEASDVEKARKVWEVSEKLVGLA

HaPOR2 [1] = target: T2, HaPOR2 (Helianthus annuus, UniProt A0A251TWA4); assay: biochemical; conditions: 5 uM Pchlide, 15 uM LPOR
T2 construct: gene PORA; transit peptide removed; pET15b
T2 sequence (A0A251TWA4 53-387): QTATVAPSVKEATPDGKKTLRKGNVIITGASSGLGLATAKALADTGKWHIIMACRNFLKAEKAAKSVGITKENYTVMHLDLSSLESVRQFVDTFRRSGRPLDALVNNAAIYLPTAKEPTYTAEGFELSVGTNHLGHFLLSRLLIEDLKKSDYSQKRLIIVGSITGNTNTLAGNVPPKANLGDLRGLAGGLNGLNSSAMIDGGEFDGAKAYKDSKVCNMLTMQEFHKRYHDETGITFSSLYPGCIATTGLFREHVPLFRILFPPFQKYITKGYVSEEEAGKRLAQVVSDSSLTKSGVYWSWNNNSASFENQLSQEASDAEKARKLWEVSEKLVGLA
Method: (§1) (Figs. 3A, S2). […] The resulting plots resembled saturation curves, to which a hyperbolic function similar to the Michaelis–Menten equation could be fitted (Figs. 3B, S3, Materials and Methods). […] However, KM^L values were consistently lower than KM^D values. […] The addition of 400 μM OPT lipids lowered the KM^D constant for all isoforms, except for SlPOR1, SlPOR3, HaPOR1, HaPOR2, and PeaPOR, where the constant remained unchanged within error estimates. […] Shaded areas represent the SD between replicates. […] A fit of a modified Michaelis–Menten equation is shown, along with the graphical representation of KM^D (B) or KM^L (C). Spectra corresponding to the given F648/F635 values (B) or F Chlide/F Pchlide values (C) are shown on the right side of the plot. D, relationship between KM^D and KM^L for investigated isoforms. The overall distribution of data points is shown in gray. Error bars represent the uncertainty associated with the fitted constant KM^x. Closed symbols represent constants determined for samples not supplemented with lipids, while open symbols these determined in the presence of 400 μM OPT lipids. LPOR, light-dependent protochlorophyllide oxidoreductase; Pchlide, protochlorophyllide; Chlide, chlorophyllide.

HaPOR3 = target: T3, HaPOR3 (Helianthus annuus, UniProt A0A251UT40); assay: biochemical; conditions: 400 uM OPT lipids, 5 uM Pchlide, 15 uM LPOR
T3 construct: gene POR; transit peptide removed; pET15b
T3 sequence (A0A251UT40 51-384): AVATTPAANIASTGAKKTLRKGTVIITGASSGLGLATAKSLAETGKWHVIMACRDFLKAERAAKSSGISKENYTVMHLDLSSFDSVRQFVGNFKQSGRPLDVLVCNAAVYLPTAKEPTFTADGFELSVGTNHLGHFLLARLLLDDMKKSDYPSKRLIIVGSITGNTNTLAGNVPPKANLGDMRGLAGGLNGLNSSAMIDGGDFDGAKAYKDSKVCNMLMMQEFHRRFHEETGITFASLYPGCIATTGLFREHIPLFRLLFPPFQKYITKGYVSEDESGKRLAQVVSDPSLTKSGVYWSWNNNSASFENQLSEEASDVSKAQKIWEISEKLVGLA
Method: as §1

HaPOR1 = target: T4, HaPOR1 (Helianthus annuus, UniProt A0A251T841); assay: biochemical; conditions: 400 uM OPT lipids, 5 uM Pchlide, 15 uM LPOR
T4 construct: gene PORA; transit peptide removed; pET15b
T4 sequence (A0A251T841 64-398): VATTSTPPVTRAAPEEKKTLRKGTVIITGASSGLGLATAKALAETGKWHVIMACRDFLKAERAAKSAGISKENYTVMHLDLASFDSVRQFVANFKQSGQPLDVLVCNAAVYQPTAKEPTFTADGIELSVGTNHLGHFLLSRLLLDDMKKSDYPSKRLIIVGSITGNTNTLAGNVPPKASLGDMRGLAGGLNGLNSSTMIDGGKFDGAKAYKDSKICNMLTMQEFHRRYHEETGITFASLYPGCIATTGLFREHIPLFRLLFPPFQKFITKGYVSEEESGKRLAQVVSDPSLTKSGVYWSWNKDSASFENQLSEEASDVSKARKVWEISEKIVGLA
Method: as §1

PinPOR [2] = target: T5, PinPOR (Pinus mugo, UniProt Q41202); assay: biochemical; conditions: 5 uM Pchlide, 15 uM LPOR
T5 construct: transit peptide removed; pET15b
T5 sequence (Q41202 67-400): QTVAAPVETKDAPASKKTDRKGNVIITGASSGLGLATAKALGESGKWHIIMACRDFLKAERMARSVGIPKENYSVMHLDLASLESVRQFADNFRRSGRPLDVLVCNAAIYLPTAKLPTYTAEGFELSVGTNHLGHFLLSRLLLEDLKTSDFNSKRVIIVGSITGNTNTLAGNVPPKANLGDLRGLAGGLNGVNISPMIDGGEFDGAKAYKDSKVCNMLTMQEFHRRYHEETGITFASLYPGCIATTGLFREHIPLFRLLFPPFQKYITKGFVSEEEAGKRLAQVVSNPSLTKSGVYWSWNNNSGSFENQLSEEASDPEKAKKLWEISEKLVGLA
Method: as §1

PinPOR [3] = target: T5, PinPOR; assay: […] K Pchlide fluorescence in darkness, F648/F635 ratio vs NADPH, hyperbolic fit; format: binding; conditions: lipid-free; 5 μM Pchlide, 15 μM LPOR, pH 7.1, room-temperature dark incubation; apparent parameter, exact value in supplement; read-out: KM^D
HaPOR2 [4] = target: T2, HaPOR2; assay: as above; format: binding; conditions: lipid-free; 5 μM Pchlide, 15 μM LPOR, pH 7.1, room-temperature dark incubation; apparent parameter, exact value in supplement; read-out: KM^D

NC(=O)C1=CN([C@@H]2O[C@H](COP(=O)(O)OP(=O)(O)OC[C@H]3O[C@@H](n4cnc5c(N)ncnc54)[C@H](OP(=O)(O)O)[C@@H]3O)[C@@H](O)[C@H]2O)C=CC1 [NADPH]
Kd (SlPOR3): < 10 µM | Dark Michaelis-like constant (KM^D) (HaPOR2 [1]; 400 uM OPT lipids): 2.2 µM | apparent Michaelis constant in the dark (KM^D) (HaPOR2 [1]; no lipids): 9.4 µM | apparent Michaelis constant in dark (KM^D) (HaPOR3): 3.9 µM | apparent Michaelis constant KM^D (dark) (HaPOR1): 16.9 µM | Michaelis constant, dark (KM^D) (PinPOR [2]; 400 uM OPT lipids): 1.3 µM | apparent Michaelis constant in dark (KM^D) (PinPOR [2]; no lipids): 4.3 µM | Kd (PinPOR [3]): < 10 µM | Kd (HaPOR2 [4]): < 10 µM

From paper PMC11930087, “Mobility of four structural regions drives isoform-specific properties of photoenzyme LPOR in plants” (The Journal of Biological Chemistry, 2025)
